The source of these data is PubChem BioAssay AID248 (DTP/NCI, 2004).

In the assay the test system is L1210 leukemia ip in BDF1 mice, survival T/C. The experiment in a line: NCI In Vivo Anticancer Drug Screen. Data for tumor model L1210 Leukemia (intraperitoneal) in B6D2F1 (BDF1) mice. The following applies: endpoint: mean survival time, higher = longer survival. The gist of the method: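 Survival endpoint. Drug-treated group vs vehicle group, expressed as T divided by C. Tumor passaged by transplantation.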

Setting [1] is: dose: 100.0 mg/kg/injection, schedule: Q01DX009 (ip), vehicle: Klucel (hydroxypropylcellulose) (HPC).
Where [2] appears, read: dose: 200.0 mg/kg/injection, schedule: Q01DX009 (ip), vehicle: Klucel (hydroxypropylcellulose) (HPC).
Setting [3] is: dose: 400.0 mg/kg/injection, schedule: Q01DX009 (ip), vehicle: Klucel (hydroxypropylcellulose) (HPC).
Where [4] appears, read: dose: 100.0 mg/kg/injection, schedule: Q01DX001 (ip), vehicle: saline.
Setting [5] is: dose: 200.0 mg/kg/injection, schedule: Q01DX001 (ip), vehicle: saline.
[6] abbreviates: dose: 400.0 mg/kg/injection, schedule: Q01DX001 (ip), vehicle: saline.
Setting [7] is: dose: 100.0 mg/kg/injection, schedule: Q01DX009 (ip), vehicle: saline with Tween-80.
Where [8] appears, read: dose: 200.0 mg/kg/injection, schedule: Q01DX009 (ip), vehicle: saline with Tween-80.
Setting [9] is: dose: 100.0 mg/kg/injection, schedule: Q04DX002 (ip), vehicle: Klucel (hydroxypropylcellulose) (HPC).
The mark [10] stands for this setting: dose: 200.0 mg/kg/injection, schedule: Q04DX002 (ip), vehicle: Klucel (hydroxypropylcellulose) (HPC).
[11] abbreviates: dose: 400.0 mg/kg/injection, schedule: Q04DX002 (ip), vehicle: Klucel (hydroxypropylcellulose) (HPC).
The mark [12] stands for this setting: dose: 100.0 mg/kg/injection, schedule: Q04DX003 (ip), vehicle: saline.
Setting [13] is: dose: 200.0 mg/kg/injection, schedule: Q04DX003 (ip), vehicle: saline.
Where [14] appears, read: dose: 400.0 mg/kg/injection, schedule: Q04DX003 (ip), vehicle: saline.
The mark [15] stands for this setting: dose: 100.0 mg/kg/injection, schedule: Q04DX003 (ip), vehicle: Klucel (hydroxypropylcellulose) (HPC).
The mark [16] stands for this setting: dose: 200.0 mg/kg/injection, schedule: Q04DX003 (ip), vehicle: Klucel (hydroxypropylcellulose) (HPC).
[17] abbreviates: dose: 400.0 mg/kg/injection, schedule: Q04DX003 (ip), vehicle: Klucel (hydroxypropylcellulose) (HPC).

“And” between values parts separate entries of the source, which are not always exact repeats. Equal values may be shown once. Inconclusive results and toxic doses are left out.

On to `O=[N+]([O-])c1ccc(N/N=C/c2cccnc2)cc1`, for which the T/C by setting is: (dose: 100.0 mg/kg/injection, schedule: Q01DX001 (ip), vehicle: Klucel (hydroxypropylcellulose) (HPC)) 96 % of control; under setting [1], 92 % of control; (dose: 200.0 mg/kg/injection, schedule: Q01DX001 (ip), vehicle: Klucel (hydroxypropylcellulose) (HPC)) 95 % of control; under setting [2], 90 % of control; (dose: 400.0 mg/kg/injection, schedule: Q01DX001 (ip), vehicle: Klucel (hydroxypropylcellulose) (HPC)) 88 % of control; under setting [3], 101 % of control.
In the case of `O=C(CC(C#Cc1ccccc1)c1ccccc1)c1ccccc1` (stereo not given), the T/C is, setting by setting: (dose: 75.0 mg/kg/injection, schedule: Q04DX003 (ip), vehicle: Klucel (hydroxypropylcellulose) (HPC)) 97 % of control; (dose: 150.0 mg/kg/injection, schedule: Q04DX003 (ip), vehicle: Klucel (hydroxypropylcellulose) (HPC)) 101 % of control; (dose: 300.0 mg/kg/injection, schedule: Q04DX003 (ip), vehicle: Klucel (hydroxypropylcellulose) (HPC)) 94 % of control.
In the case of `CC(C)CCC(=O)CCC1CCCCC1`, the T/C runs as follows: under setting [4], 92 % of control; under setting [5], 92 % of control; under setting [6], 94 % of control.
For `CC(=O)OCc1c(C)[nH]c2ccc(N(C)C)cc2c1=O`, the T/C under setting [7] is 102 % of control and the T/C under setting [8] was 112 % of control.
With `CC(C)(C)S(=O)(=O)CCCl`, the T/C is, setting by setting: (dose: 75.0 mg/kg/injection, schedule: Q01DX009 (ip), vehicle: Klucel (hydroxypropylcellulose) (HPC)) 93 % of control; (dose: 100.0 mg/kg/injection, schedule: Q01DX005 (ip), vehicle: Klucel (hydroxypropylcellulose) (HPC)) 96 % of control; under setting [9], 88 % of control; (dose: 150.0 mg/kg/injection, schedule: Q01DX009 (ip), vehicle: Klucel (hydroxypropylcellulose) (HPC)) 93 % of control; (dose: 200.0 mg/kg/injection, schedule: Q01DX005 (ip), vehicle: Klucel (hydroxypropylcellulose) (HPC)) 100 % of control; under setting [10], 100 % of control. Also, the T/C (dose: 300.0 mg/kg/injection, schedule: Q01DX009 (ip), vehicle: Klucel (hydroxypropylcellulose) (HPC)) is 96 % of control; the T/C (dose: 400.0 mg/kg/injection, schedule: Q01DX005 (ip), vehicle: Klucel (hydroxypropylcellulose) (HPC)) was 100 % of control; the T/C under setting [11] is 100 % of control.
Turning to `CC(C(=O)O)S(=O)(=O)Cc1ccccc1` (stereo not given), the T/C by setting is: under setting [4], 94 % of control; under setting [5], 97 % of control; under setting [6], 100 % of control.
Take `COc1cccc(C2CCCCCC2OS(C)(=O)=O)c1OC` (stereo not given): the T/C runs as follows: under setting [4], 109 % of control; under setting [12], 102 % of control; under setting [5], 102 % of control; under setting [13], 109 % of control; under setting [6], 112 % of control; under setting [14], 102 % of control.
Turning to `Nc1cc(C(=O)Nc2ccc(C3=NCCCN3)cc2)ccc1C(=O)Nc1ccc(C2=NCCCN2)cc1`, the T/C was 97 % of control (dose: 7.5 mg/kg/injection, schedule: Q01DX Z (oral), vehicle: saline); 93 % of control (dose: 15.0 mg/kg/injection, schedule: Q01DX Z (ip), vehicle: saline); 96 % of control (dose: 15.0 mg/kg/injection, schedule: Q01DX Z (oral), vehicle: saline); 97 % of control (dose: 30.0 mg/kg/injection, schedule: Q01DX Z (oral), vehicle: saline); 103 % of control (dose: 60.0 mg/kg/injection, schedule: Q01DX Z (oral), vehicle: saline).
Regarding `O=P1(NCCCl)OCCC(O)N1CCCl` (stereo not given), the T/C reads like this: (dose: 100.0 mg/kg/injection, schedule: Q01DX001 (ip), vehicle: DMSO) 242 % of control; (dose: 200.0 mg/kg/injection, schedule: Q01DX001 (ip), vehicle: DMSO) 284 % of control; (dose: 400.0 mg/kg/injection, schedule: Q01DX001 (ip), vehicle: DMSO) 273 % of control.
For the compound `COc1cc(CC(=O)NO)cc(OC)c1OC`, the T/C runs as follows: (dose: 50.0 mg/kg/injection, schedule: Q01DX005 (ip), vehicle: saline with Tween-80) 93 % of control; (dose: 50.0 mg/kg/injection, schedule: Q01DX009 (ip), vehicle: saline with Tween-80) 100 % of control; (dose: 100.0 mg/kg/injection, schedule: Q01DX005 (ip), vehicle: saline with Tween-80) 110 % of control; under setting [7], 96 % of control; (dose: 200.0 mg/kg/injection, schedule: Q01DX005 (ip), vehicle: saline with Tween-80) 93 % of control; under setting [8], 100 % of control.
As for `COc1ccc(C2CCC(=O)CC2(O)C(=O)O)cc1` (stereo not given), the T/C is 91 % of control under setting [1]; 98 % of control under setting [15]; 88 % of control under setting [2]; 102 % of control under setting [16]; 98 % of control under setting [3]; 100 % of control under setting [17].
Take `O=C(O)c1ccc(/C=N\Nc2ccccc2)cc1`: the T/C was 95 % of control (dose: 50.0 mg/kg/injection, schedule: Q04DX003 (ip), vehicle: Klucel (hydroxypropylcellulose) (HPC)); 106 % of control under setting [15]; 100 % of control under setting [16]; 97 % of control under setting [17].
As to `Cc1[nH][nH]c(=O)c1N=Nc1ccccc1`, the T/C (dose: 50.0 mg/kg/injection, schedule: Q01DX009 (ip), vehicle: Klucel (hydroxypropylcellulose) (HPC)) is 94 % of control; the T/C under setting [1] is 98 % of control; the T/C under setting [2] was 98 % of control.
As for `COC1=CC(=O)C2=C(C1=O)C1(C)CCCC(C)(COC(C)=O)C1CC2` (stereo not given), the T/C (dose: 200.0 mg/kg/injection, schedule: Q01DX001 (ip), vehicle: carboxymethylcellulose (CMC)) is 95 % of control and the T/C (dose: 400.0 mg/kg/injection, schedule: Q01DX001 (ip), vehicle: carboxymethylcellulose (CMC)) is 88 % of control.
As to `COc1ccc(Cl)cc1NC(=O)C(Cl)(Cl)Cl`, the T/C (dose: 50.0 mg/kg/injection, schedule: Q01DX001 (ip), vehicle: saline with Tween-80) was 102 % of control; the T/C (dose: 100.0 mg/kg/injection, schedule: Q01DX001 (ip), vehicle: saline with Tween-80) was 88 % of control and 92 % of control; the T/C under setting [7] is 94 % of control; the T/C (dose: 100.0 mg/kg/injection, schedule: Q04DX002 (ip), vehicle: saline with Tween-80) was 100 % of control and 101 % of control; the T/C (dose: 200.0 mg/kg/injection, schedule: Q01DX001 (ip), vehicle: saline with Tween-80) is 91 % of control; the T/C under setting [8] is 95 % of control and 89 % of control. For the same compound, the T/C is 93 % of control and 98 % of control (dose: 200.0 mg/kg/injection, schedule: Q04DX002 (ip), vehicle: saline with Tween-80); 89 % of control (dose: 400.0 mg/kg/injection, schedule: Q01DX001 (ip), vehicle: saline with Tween-80); 93 % of control and 94 % of control (dose: 400.0 mg/kg/injection, schedule: Q04DX002 (ip), vehicle: saline with Tween-80).
As for `CCOC(=O)Cn1c(C)cnc1C`, the T/C under setting [4] is 112 % of control; the T/C (dose: 100.0 mg/kg/injection, schedule: Q01DX009 (ip), vehicle: saline) was 96 % of control and 108 % of control; the T/C under setting [9] was 107 % of control; the T/C (dose: 100.0 mg/kg/injection, schedule: Q04DX002 (ip), vehicle: saline) was 98 % of control; the T/C under setting [12] is 101 % of control; the T/C under setting [5] was 104 % of control. Besides, the T/C is, setting by setting: (dose: 200.0 mg/kg/injection, schedule: Q01DX009 (ip), vehicle: saline) 101 % of control and 91 % of control; under setting [10], 100 % of control; (dose: 200.0 mg/kg/injection, schedule: Q04DX002 (ip), vehicle: saline) 113 % of control; under setting [13], 99 % of control; under setting [6], 98 % of control; (dose: 400.0 mg/kg/injection, schedule: Q01DX009 (ip), vehicle: saline) 96 % of control and 103 % of control. For the same compound, the T/C is, setting by setting: under setting [11], 111 % of control; (dose: 400.0 mg/kg/injection, schedule: Q04DX002 (ip), vehicle: saline) 98 % of control; under setting [14], 99 % of control.
